The source made the active and inactive calls.
What was measured:
[1] = biological target: Protein kinase C alpha type (Homo sapiens, UniProt P17252)
[2] = biological target: T1, Cysteine--tRNA ligase, cytoplasmic (Homo sapiens, UniProt P49589)
T1 sequence (P49589 whole entry): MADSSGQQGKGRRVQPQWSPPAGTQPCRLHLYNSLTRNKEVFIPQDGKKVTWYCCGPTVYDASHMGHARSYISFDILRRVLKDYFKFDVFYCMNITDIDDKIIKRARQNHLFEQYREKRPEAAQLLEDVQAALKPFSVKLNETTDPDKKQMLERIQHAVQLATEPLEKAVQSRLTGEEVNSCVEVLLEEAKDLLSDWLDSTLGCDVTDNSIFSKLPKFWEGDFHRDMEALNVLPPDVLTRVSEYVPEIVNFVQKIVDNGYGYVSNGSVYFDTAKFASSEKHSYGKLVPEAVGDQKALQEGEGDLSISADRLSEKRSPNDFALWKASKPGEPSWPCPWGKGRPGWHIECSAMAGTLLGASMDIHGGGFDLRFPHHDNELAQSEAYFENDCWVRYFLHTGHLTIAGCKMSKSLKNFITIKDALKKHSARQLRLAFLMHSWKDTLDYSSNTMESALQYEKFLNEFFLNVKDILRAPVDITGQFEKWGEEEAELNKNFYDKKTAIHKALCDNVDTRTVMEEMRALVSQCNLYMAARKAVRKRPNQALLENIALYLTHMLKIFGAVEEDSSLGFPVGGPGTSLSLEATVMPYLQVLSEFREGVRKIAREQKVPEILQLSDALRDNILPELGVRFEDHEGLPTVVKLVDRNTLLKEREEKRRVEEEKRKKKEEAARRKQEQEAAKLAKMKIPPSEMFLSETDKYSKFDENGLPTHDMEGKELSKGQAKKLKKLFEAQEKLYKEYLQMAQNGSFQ

Glycine--tRNA ligase = biological target: T2, Glycine--tRNA ligase (Homo sapiens, UniProt P41250)
T2 sequence (P41250 whole entry): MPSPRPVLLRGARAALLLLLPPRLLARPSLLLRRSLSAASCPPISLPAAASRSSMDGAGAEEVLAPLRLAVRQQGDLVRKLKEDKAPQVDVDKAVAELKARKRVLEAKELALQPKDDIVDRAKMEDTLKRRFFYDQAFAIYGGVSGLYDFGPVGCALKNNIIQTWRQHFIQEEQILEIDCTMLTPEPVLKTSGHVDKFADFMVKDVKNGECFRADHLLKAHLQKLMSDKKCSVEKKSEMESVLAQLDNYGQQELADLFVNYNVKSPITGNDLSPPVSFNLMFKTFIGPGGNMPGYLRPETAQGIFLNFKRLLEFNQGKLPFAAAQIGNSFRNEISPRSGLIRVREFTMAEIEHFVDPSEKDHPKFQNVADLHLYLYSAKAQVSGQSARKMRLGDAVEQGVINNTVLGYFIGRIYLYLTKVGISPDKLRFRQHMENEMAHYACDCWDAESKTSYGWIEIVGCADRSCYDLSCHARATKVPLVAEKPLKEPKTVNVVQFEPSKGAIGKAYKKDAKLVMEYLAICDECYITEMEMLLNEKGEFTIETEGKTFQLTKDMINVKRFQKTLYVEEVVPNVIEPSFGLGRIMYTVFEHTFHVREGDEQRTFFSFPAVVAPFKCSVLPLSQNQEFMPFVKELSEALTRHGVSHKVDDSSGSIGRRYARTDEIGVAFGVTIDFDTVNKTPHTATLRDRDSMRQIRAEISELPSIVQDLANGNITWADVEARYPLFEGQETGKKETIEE

ADP/ATP translocase 2 = biological target: T3, ADP/ATP translocase 2 (Homo sapiens, UniProt P05141)
T3 sequence (P05141 whole entry): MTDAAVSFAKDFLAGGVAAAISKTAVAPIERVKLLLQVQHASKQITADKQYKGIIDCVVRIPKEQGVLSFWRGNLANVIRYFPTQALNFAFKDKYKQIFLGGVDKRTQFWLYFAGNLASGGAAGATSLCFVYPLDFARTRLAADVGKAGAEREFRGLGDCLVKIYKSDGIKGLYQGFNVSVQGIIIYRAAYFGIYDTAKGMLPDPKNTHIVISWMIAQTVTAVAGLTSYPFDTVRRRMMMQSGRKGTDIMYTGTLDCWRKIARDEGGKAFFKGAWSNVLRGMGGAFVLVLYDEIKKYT

[3] = biological target: T4, Mitogen-activated protein kinase 15 (Homo sapiens, UniProt Q8TD08)
T4 sequence (Q8TD08 whole entry): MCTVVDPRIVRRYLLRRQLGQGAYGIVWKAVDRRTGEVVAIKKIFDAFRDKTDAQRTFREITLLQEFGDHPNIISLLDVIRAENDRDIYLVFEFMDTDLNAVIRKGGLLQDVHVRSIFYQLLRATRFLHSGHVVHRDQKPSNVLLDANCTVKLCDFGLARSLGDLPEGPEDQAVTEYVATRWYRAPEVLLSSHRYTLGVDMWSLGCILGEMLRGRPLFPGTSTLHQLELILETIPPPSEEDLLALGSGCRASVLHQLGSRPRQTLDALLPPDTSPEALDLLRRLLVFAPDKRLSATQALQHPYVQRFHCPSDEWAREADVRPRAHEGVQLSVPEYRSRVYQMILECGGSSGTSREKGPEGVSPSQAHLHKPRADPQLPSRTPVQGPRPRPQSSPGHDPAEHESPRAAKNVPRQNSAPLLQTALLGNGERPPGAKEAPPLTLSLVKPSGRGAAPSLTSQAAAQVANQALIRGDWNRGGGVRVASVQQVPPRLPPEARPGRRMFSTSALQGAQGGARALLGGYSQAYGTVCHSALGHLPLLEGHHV

[4] = biological target: T5, Mitogen-activated protein kinase kinase kinase 2 (Homo sapiens, UniProt Q9Y2U5)
T5 sequence (Q9Y2U5 whole entry): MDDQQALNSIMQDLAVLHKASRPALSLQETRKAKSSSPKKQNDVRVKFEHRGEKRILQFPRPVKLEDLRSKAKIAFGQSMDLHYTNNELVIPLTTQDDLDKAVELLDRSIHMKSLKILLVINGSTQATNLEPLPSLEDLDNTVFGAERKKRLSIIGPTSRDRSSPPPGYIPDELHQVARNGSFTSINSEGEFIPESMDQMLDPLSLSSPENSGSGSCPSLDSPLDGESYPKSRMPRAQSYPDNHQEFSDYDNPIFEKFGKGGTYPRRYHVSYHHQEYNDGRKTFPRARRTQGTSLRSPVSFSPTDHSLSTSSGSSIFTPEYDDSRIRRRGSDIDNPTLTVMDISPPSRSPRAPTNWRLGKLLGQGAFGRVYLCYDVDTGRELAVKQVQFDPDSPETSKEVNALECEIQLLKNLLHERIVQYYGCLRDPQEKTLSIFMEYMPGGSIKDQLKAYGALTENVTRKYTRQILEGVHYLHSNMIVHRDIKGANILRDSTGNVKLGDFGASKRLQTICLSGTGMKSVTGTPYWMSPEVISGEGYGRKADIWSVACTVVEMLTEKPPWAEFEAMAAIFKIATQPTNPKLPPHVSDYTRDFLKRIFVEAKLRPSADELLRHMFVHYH
Also: in the data inactive means no Kd found up to 30 µM.

Kd [1]: > 30 µM (inactive) | Kd [2]: 0.652 µM (active) | Kd (Glycine--tRNA ligase): > 30 µM (inactive) | Kd (ADP/ATP translocase 2): > 30 µM (inactive) | Kd [4]: > 30 µM (inactive)
Structure (SMILES): C#Cc1cccc(Nc2ncnc3cc4c(cc23)OCCOCCOCCO4)c1 [ICOTINIB]
Kd [3]: > 30 µM (inactive)
